Consider four compounds from patent US20260167622A1, “PAN-KRAS DEGRADING AGENT, AND PREPARATION METHOD THEREFOR AND USE THEREOF” (LEADINGTAC PHARMACEUTICAL (SHAOXING) CO., LTD., priority 2022, published 2026).

What all share (format): cell-based
Assay [1] concerns the target T1, KRAS G12C protein in NCI-H358 cells (Homo sapiens, UniProt P01116, G12C).
T1 construct: endogenous in cells; host or cells: NCI-H358
In words: KRAS degradation assay (Western Blot) in NCI-H358 cells. Particulars: 24 h. The text has this:
(§1) Test Example 5: KRAS G12C, KRAS G12D, KRAS G12V, KRAS G13D, and KRAS WT (Expanded) Degradation Assays
(§2) The degradation effect of the compounds on KRAS was investigated on KRAS G12C mutant human non-small cell lung cancer cell NCI-H358, KRAS G12D mutant human metastatic pancreatic cancer cell AsPc-1, KRAS G12D mutant human lung cancer cell A427, KRAS G12V mutant human colorectal cancer cell SW620, KRAS G12V mutant human lung cancer cell SW900, KRAS G13D mutant human colorectal cancer epithelial cell DLD-1, and KRAS WT human gastric cancer cell MKN-1. The specific procedures were as follows: 0.95 mL of cells were seeded into each well of a 24-well cell culture plate to achieve a cell density of 5×10^5 cells/well; and the cell plate was incubated in an incubator at 37° C. with 5% CO2 overnight. Then 50 μL of the compound solution after dilution was added to each of the wells with the corresponding cells, so that the final concentration of the compound was in a range of 0.03-3000 nM. The final concentration of DMSO was 0.25%. After the compounds were added, the cell plate was incubated in an incubator at 37° C. with 5% CO2 for 24 h. The culture medium in the 24-well cell culture plate was then removed, and the plate was washed twice with 1×PBS (KeyGEN). 120 μL of RIPA (strong) lysis buffer (Beyotime) (supplemented with 1 mM phenylmethylsulfonyl fluoride, a protease inhibitor mixture (Beyotime), and a protease phosphatase inhibitor mixture (Beyotime)) was added to lyse adherent SW900 cells at the bottom of the cell culture plate. After the plate was left to stand on ice for 30 min, the protein lysate in each well was transferred to a 1.5 mL centrifuge tube and centrifuged at 15000 g for 20 min at 4° C. The cell lysate supernatants after centrifugation were cryopreserved in a refrigerator at −80° C. for later use.
(§3) After the samples of the cell lysate supernatants that had been prepared were thawed from the refrigerator at −80° C., the total protein concentrations of the cell lysates were determined using a BCA protein quantification kit (Tiangen). The total protein concentrations of the samples were then adjusted to 0.5 μg/μL with PBS and 5×SDS-PAGE protein loading buffer (Beyotime), and the samples were incubated in a water bath at 100° C. for 15 min. The samples were then incubated in an ice bath for 5 min and centrifuged at 14000 g for 1 min at 4° C., and the supernatants were mixed well as loading samples for the Western Blot assay. The samples were loaded into wells of a 10% precast gel (KeyGEN) with a loading volume of 10 μL (total protein: 5 μg), a sufficient Tris-MOPS-SDS running buffer (Adamas) was added, and then electrophoresis was performed at a constant voltage of 120 V for 55 min. After the electrophoresis, the proteins on the gel were transferred to PVDF membranes at a constant current of 250 mA for 55 min. After the membrane transfer, the PVDF membranes were incubated in 1× Quick Block blocking buffer (Beyotime)at room temperature for 30 min. After the blocking, the PVDF membranes were separately incubated at 4° C. overnight with the KRAS antibody (Abcam) diluted in a ratio of 1:1000 and the β-actin antibody (Abcam) diluted in a ratio of 1:2000 in 5% BSA as the diluent, and then washed with 1×TBST buffer (2.4 g of Tris, 8.8 g of NaCl, 1.5 mL of Tween 20, with pH adjusted to 7.4, with the volume brought to 1 L) 3 times for 10 min/time. The membranes were incubated with a secondary antibody (Abcam) diluted in 5% BSA at room temperature for 2 h, and then washed with 1×TBST buffer 3 times for 10 min/time. Finally, the membranes were incubated with Clarity Western ECL Substrate (BIO-RAD) for 5 min for luminescence and color development, and a ChemiScope 6200 Touch chemiluminescence imaging system (Clinx) was used for color development and protein mapping. Gray value analysis of the protein maps was performed using the chemiluminescence analysis software (Clinx). […]
(Immunoblotting shows a protein as a band on a membrane.)

Assay [2] addresses T2, KRAS G13D protein in DLD-1 cells (Homo sapiens, UniProt P01116, G13D).
T2 construct: endogenous in cells; host or cells: DLD-1
In words: KRAS degradation assay (Western Blot) in DLD-1 cells. Particulars: 24 h. An outline of the steps: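 Western blot read-out: KRAS band gray value divided by β-actin, compared with DMSO control to give degradation rate. DC50 and Dmax came from log concentration–response fits after 24 h compound exposure (0.03–3000 nM final, 0.25% DMSO) at 37 °C, 5% CO2.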

The test system of assay [3] is KRAS WT human gastric cancer cell MKN1. The assay is described as follows: 3D cell proliferation inhibition assay, MKN1. The settings on record: MKN-1, 168 h, 3D culture, 7 days, CTG. An outline of the steps: (§4)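 Cells seeded in low-adsorption plates at 5×10^2 cells/well (MKN1 1×10^3) with compounds at final 10000–0.026 nM, 0.2% DMSO, 3D culture 7 days at 37 °C. Viability by CellTiter-Glo luminescence; inhibition normalised to DMSO and medium-only controls, IC50 from nonlinear log-concentration fit.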

For assay [4], the system named is KRAS G12C mutant human non-small cell lung cancer cell NCI-H358. The assay is described as follows: 3D cell proliferation inhibition assay, NCI-H358. The settings on record: NCI-H358, 168 h, 3D culture, 7 days, CTG. An outline of the steps: as §4
The target in assay [5] is T3, KRAS G12D protein in AsPc-1 cells (Homo sapiens, UniProt P01116, G12D).
T3 construct: endogenous in cells; host or cells: AsPc-1
In words: KRAS degradation assay (Western Blot) in AsPc-1 cells. The settings on record: for DC50: 24 h; for Dmax: ASPC1, 24 h.
Text: as §1, §2, §3

For assay [6], the target named is T4, KRAS WT (expanded) protein in MKN1 cells (Homo sapiens, UniProt P01116).
T4 construct: endogenous in cells; host or cells: MKN1 (MKN-1)
The assay is described as follows: KRAS degradation assay (Western Blot) in MKN1 cells. Particulars: for DC50: 24 h; for Dmax: MKN-1, 24 h.
Text: as §1, §2, §3

The subject of assay [7] is KRAS G12V mutant human colorectal cancer cell SW620. In words: 3D cell proliferation inhibition assay, SW620. The settings on record: SW-620, 168 h, 3D culture, 7 days, CTG. An outline of the steps: as §4
Assay [8] concerns KRAS G13D mutant human colorectal cancer epithelial cell DLD-1. The assay is described as follows: 3D cell proliferation inhibition assay, DLD-1. Particulars: DLD-1, 168 h, 3D culture, 7 days, CTG. In outline:
as §4

In assay [9] the test system is KRAS G12D mutant human metastatic pancreatic cancer cell AsPc-1. The assay is described as follows: 3D cell proliferation inhibition assay, AsPc-1. Particulars: ASPC1, 168 h, 3D culture, 7 days, CTG. In outline: as §4
Assay [10] deals with T5, KRAS G12V protein in SW620 cells (Homo sapiens, UniProt P01116, G12V).
T5 construct: endogenous in cells; host or cells: SW620
In words: KRAS degradation assay (Western Blot) in SW620 cells. The settings on record: for DC50: 24 h; for Dmax: SW-620, 24 h. In outline: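 After a 24 h treatment spanning 0.03–3000 nM, remaining KRAS protein is quantified by ECL immunoblot against a β-actin internal reference. Degradation is expressed relative to vehicle-treated cells and curve-fitted for DC50 and Dmax.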

T4 sequence (P01116 1-188 isoform P01116-2): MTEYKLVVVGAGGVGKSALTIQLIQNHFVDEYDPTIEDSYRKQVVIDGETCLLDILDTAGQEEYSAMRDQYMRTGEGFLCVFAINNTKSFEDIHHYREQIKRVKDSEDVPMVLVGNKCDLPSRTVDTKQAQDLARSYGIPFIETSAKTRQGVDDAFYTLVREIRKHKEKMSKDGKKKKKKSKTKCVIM
T3 sequence (P01116 1-188 isoform P01116-2 G12D): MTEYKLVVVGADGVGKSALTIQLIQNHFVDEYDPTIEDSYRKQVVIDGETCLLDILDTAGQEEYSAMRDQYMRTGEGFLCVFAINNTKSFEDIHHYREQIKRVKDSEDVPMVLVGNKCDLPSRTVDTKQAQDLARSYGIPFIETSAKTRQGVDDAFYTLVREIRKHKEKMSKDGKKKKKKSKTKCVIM
T2 sequence (P01116 1-188 isoform P01116-2 G13D): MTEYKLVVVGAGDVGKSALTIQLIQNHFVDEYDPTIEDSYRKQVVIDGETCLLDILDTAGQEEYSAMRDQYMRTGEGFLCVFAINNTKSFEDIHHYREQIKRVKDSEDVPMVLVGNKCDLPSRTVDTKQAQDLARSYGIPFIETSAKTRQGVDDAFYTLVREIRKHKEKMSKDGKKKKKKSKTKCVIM
T5 sequence (P01116 1-188 isoform P01116-2 G12V): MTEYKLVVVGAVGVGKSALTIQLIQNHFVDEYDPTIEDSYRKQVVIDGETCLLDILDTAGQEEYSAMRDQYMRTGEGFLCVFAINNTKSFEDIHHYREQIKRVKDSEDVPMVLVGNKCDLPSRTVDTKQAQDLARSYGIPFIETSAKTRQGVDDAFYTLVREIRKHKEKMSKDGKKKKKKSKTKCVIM
T1 sequence (P01116 1-188 isoform P01116-2 G12C): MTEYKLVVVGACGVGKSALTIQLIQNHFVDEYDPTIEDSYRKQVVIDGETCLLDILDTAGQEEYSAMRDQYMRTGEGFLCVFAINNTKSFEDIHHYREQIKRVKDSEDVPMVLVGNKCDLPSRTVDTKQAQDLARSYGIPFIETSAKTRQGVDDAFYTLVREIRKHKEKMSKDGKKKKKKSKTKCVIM

With `[2H]C([2H])([2H])Oc1ccc(C(=O)N2CCC3(CCC(CN4CCN(C[C@@H](C)COc5nc(N6CCC[C@@](C)(O)C6)c6cnc(-c7cc(O)cc8ccc(F)c(C#C)c78)c(F)c6n5)CC4)CC3)CC2)cc1N1CCC(=O)NC1=O` [Example 164, 1-(5-(9-((4-((R)-3-((7-(8-ethynyl-7-fluoro-3-hydroxynaphthalen-1-yl)-8-fluoro-4-((R)-3-hydroxy-3-methylpiperidin-1-yl)pyrido[4,3-d]pyrimidin-2-yl)oxy)-2-methylpropyl)piperazin-1-yl)methyl)-3-azaspiro[5.5]undecane-3-carbonyl)-2-(methoxy-d3)phenyl)dihydropyrimidine-2,4(1H,3H)-dione], the DC50 (in general, the concentration at which degradation of the target reaches its halfway point) in assay [1] came to 1.11 nM; in assay [2] it was 4.39 nM; in assay [5], 5.91 nM; in assay [6], 1.25 nM; in assay [10] it was 7.48 nM. The Dmax (as a rule, the largest share of the target that was removed) in assay [1] was found to be 98.2%; in assay [2], 100%; in assay [5] it was 99.6%; in assay [6] it was 99.5%; in assay [10] it was 99.5%. Moreover, the IC50 (commonly the concentration at which inhibition is half-maximal) in [3] is 22.6 nM; in [4], 4.66 nM; in assay [7] it was 3.76 nM; in [8] it was 3.9 nM; in assay [9], 12.1 nM.

On to `C#Cc1c(F)ccc2cc(O)cc(-c3ncc4c(N5CCC[C@@](C)(O)C5)nc(OCC5(CN6CCN(CC7CCC8(CC7)CCN(C(=O)c7cc(N9CCC(=O)NC9=O)c(C)cc7F)CC8)CC6)CC5)nc4c3F)c12` [Example 91, (R)-1-(5-(9-((4-((1-(((7-(8-ethynyl-7-fluoro-3-hydroxynaphthalen-1-yl)-8-fluoro-4-(3-hydroxy-3-methylpiperidin-1-yl)pyrido[4,3-d]pyrimidin-2-yl)oxy)methyl)cyclopropyl)methyl)piperazin-1-yl)methyl)-3-azaspiro[5.5]undecane-3-carbonyl)-4-fluoro-2-methylphenyl)dihydropyrimidine-2,4(1H,3H)-dione], for which the DC50 in [1] is 6.04 nM; in assay [2], 8.8 nM; in assay [6] it was 1.15 nM; in [10], 5.16 nM. Further, the Dmax in assay [1] turned out to be 92.7%; in [2], 100%; in assay [6] it was 98.9%; in assay [10], 100%. Also, the half-inhibitory concentration (IC50) is 5.41 nM in [3]; 2.13 nM in assay [4]; 1.92 nM in assay [7]; 8.33 nM in assay [8]; 4.26 nM in assay [9].

On to `C#Cc1c(F)ccc2cc(O)cc(-c3ncc4c(N5CCC[C@@](C)(O)C5)nc(OC[C@H](C)CN5CCN(CC6CCC7(CC6)CCN(C(=O)c6ccc(OC)c(N8CCC(=O)NC8=O)c6)CC7)CC5)nc4c3F)c12` [Example 46, 1-(5-(9-((4-((R)-3-((7-(8-ethynyl-7-fluoro-3-hydroxynaphthalen-1-yl)-8-fluoro-4-((R)-3-hydroxy-3-methylpiperidin-1-yl)pyrido[4,3-d]pyrimidin-2-yl)oxy)-2-methylpropyl)piperazin-1-yl)methyl)-3-azaspiro[5.5]undecane-3-carbonyl)-2-methoxyphenyl)dihydropyrimidine-2,4(1H,3H)-dione], for which the DC50 in assay [1] is 3.14 nM; in assay [2], 2.36 nM; in assay [6], 1.26 nM; in [10], 0.87 nM. Besides, the Dmax came out at 86.7% in [1], 100% in [2], 100% in assay [6] and 100% in assay [10]. Besides, the IC50 turned out to be 2.01 nM in assay [3]; 18.2 nM in [4]; 2.81 nM in assay [7]; 5.49 nM in [8]; 9.03 nM in assay [9].

For `C#Cc1c(F)ccc2cc(O)cc(-c3ncc4c(N5CCC[C@@](C)(O)C5)nc(OC[C@H](C)CN5CCN(CC6CCC7(CC6)CCN(C(=O)c6ccc(C)c(N8CCC(=O)NC8=O)c6)CC7)CC5)nc4c3F)c12` [Example 47, 1-(5-(9-((4-((R)-3-((7-(8-ethynyl-7-fluoro-3-hydroxynaphthalen-1-yl)-8-fluoro-4-((R)-3-hydroxy-3-methylpiperidin-1-yl)pyrido[4,3-d]pyrimidin-2-yl)oxy)-2-methylpropyl)piperazin-1-yl)methyl)-3-azaspiro[5.5]undecane-3-carbonyl)-2-methylphenyl)dihydropyrimidine-2,4(1H,3H)-dione], the DC50 in assay [1] is 1.7 nM; in [2], 2.05 nM; in assay [5] it was 18.7 nM; in [6], 0.28 nM; in [10], 0.99 nM. Also, the Dmax came out at 88.9% in assay [1]; 100% in assay [2]; 93.3% in assay [5]; 97.4% in assay [6]; 100% in [10]. Moreover, the IC50 in [3] turned out to be 2.33 nM; in assay [4] it was 2.33 nM; in assay [7], 1.92 nM; in assay [8], 3.55 nM; in assay [9], 6.48 nM.
